These are literature values, as cited in patent publication US20120093738A1, “TASTE-MASKED ORAL FORMULATIONS OF INFLUENZA ANTIVIRALS” (Rubicon Research Private Limited, priority 2009, published 2012).

For this data set the following is noted: reconstituted multi-dose suspensions.

For `CCOC(=O)C1=C[C@@H](OC(CC)CC)[C@H](NC(C)=O)[C@@H](N)C1` [oseltamivir phosphate], the “time within which the suspension needs to be used” value is given as no more than 10 days.
